ChEMBL document CHEMBL4507297, “Data for DCP probe PF-04457845” (2021)

What was measured:
[1] = system: Tyrosine-protein kinase ABL1 (Homo sapiens), P00519 [M351T]; conditions: Compound concentration 1000.0 nM
[2] = biological target: Serine/threonine-protein kinase BRSK1 (Homo sapiens) (UniProt Q8TDC3); conditions: Compound concentration 1000.0 nM
[3] = biological target: Tyrosine-protein kinase BTK (Homo sapiens) (UniProt Q06187); conditions: Compound concentration 1000.0 nM
[4] = biological target: Mitotic checkpoint serine/threonine-protein kinase BUB1 (Homo sapiens) (UniProt O43683); conditions: Compound concentration 1000.0 nM
Mitotic checkpoint serine/threonine-protein kinase BUB1 (Homo sapiens), sequence (O43683 whole entry, looked up): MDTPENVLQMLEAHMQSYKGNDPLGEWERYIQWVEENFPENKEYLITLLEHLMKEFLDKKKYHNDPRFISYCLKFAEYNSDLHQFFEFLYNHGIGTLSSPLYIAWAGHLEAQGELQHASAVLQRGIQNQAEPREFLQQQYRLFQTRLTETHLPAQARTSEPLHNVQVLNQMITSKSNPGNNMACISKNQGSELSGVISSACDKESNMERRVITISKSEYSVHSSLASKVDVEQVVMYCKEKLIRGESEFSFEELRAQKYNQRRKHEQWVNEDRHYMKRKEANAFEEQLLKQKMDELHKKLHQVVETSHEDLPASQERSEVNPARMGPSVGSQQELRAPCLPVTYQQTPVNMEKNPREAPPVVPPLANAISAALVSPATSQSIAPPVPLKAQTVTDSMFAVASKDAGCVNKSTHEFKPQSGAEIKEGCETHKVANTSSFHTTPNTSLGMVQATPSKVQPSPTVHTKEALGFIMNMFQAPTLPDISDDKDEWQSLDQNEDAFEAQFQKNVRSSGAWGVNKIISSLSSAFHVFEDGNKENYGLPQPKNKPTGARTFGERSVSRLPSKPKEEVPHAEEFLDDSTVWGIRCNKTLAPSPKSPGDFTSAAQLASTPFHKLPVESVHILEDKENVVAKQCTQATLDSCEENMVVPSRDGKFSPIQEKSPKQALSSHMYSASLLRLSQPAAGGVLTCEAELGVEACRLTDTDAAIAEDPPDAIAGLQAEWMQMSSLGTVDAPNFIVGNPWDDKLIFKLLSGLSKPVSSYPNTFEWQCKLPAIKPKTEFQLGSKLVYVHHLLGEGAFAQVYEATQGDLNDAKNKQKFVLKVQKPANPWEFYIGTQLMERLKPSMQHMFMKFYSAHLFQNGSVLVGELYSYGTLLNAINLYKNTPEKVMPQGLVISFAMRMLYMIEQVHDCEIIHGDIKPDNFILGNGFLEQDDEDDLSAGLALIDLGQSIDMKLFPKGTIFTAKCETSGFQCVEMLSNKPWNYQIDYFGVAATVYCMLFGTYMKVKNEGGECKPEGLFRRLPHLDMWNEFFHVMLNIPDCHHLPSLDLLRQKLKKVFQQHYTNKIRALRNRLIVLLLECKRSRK

[5] = biological target: Dual specificity protein kinase CLK1 (Homo sapiens) (UniProt P49759); conditions: Compound concentration 1000.0 nM
Dual specificity protein kinase CLK1 (Homo sapiens), sequence (P49759 whole entry, looked up): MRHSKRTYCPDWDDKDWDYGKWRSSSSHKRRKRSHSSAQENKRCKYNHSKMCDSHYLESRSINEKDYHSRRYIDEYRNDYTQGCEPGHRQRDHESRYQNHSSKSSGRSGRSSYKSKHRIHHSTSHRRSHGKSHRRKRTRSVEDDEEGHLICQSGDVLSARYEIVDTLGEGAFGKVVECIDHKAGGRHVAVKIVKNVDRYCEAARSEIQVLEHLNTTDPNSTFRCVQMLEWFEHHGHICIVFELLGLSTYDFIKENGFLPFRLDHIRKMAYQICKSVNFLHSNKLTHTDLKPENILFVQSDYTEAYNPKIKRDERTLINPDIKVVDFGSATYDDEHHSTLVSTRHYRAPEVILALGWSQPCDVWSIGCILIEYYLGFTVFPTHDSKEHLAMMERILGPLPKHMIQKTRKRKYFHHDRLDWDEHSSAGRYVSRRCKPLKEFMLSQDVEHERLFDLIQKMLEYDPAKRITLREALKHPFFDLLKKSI

[6] = system: Epidermal growth factor receptor (Homo sapiens), P00533 [UNDEFINED MUTATION]; conditions: Compound concentration 1000.0 nM
[7] = biological target: Ephrin type-B receptor 2 (Homo sapiens) (UniProt P29323); conditions: Compound concentration 1000.0 nM
[8] = biological target: Ephrin type-B receptor 6 (Homo sapiens) (UniProt O15197); conditions: Compound concentration 1000.0 nM
[9] = biological target: Receptor tyrosine-protein kinase erbB-2 (Homo sapiens) (UniProt P04626); conditions: Compound concentration 1000.0 nM
[10] = system: Receptor-type tyrosine-protein kinase FLT3 (Homo sapiens), P36888 [N841I]; conditions: Compound concentration 1000.0 nM
[11] = biological target: Serine/threonine-protein kinase haspin (Homo sapiens) (UniProt Q8TF76); conditions: Compound concentration 1000.0 nM
[12] = biological target: Homeodomain-interacting protein kinase 2 (Homo sapiens) (UniProt Q9H2X6); conditions: Compound concentration 1000.0 nM
[13] = biological target: Mitogen-activated protein kinase kinase kinase kinase 1 (Homo sapiens) (UniProt Q92918); conditions: Compound concentration 1000.0 nM
[14] = biological target: Mitogen-activated protein kinase 8 (Homo sapiens) (UniProt P45983); conditions: Compound concentration 1000.0 nM
Mitogen-activated protein kinase 8 (Homo sapiens), sequence (P45983 whole entry): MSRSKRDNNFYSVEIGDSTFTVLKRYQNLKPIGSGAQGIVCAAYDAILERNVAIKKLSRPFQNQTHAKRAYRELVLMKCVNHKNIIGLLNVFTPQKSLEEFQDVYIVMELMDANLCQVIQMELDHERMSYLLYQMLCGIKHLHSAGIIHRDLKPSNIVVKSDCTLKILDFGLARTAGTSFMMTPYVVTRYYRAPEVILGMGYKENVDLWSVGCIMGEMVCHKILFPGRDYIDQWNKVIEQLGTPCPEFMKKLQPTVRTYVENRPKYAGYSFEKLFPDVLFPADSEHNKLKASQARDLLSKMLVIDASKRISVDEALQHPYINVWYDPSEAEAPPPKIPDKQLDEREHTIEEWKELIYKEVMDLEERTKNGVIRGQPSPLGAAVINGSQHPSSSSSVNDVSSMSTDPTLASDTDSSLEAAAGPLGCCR

[15] = system: Mast/stem cell growth factor receptor Kit (Homo sapiens), P10721 [D816H]; conditions: Compound concentration 1000.0 nM
[16] = biological target: LIM domain kinase 1 (Homo sapiens) (UniProt P53667); conditions: Compound concentration 1000.0 nM
LIM domain kinase 1 (Homo sapiens), sequence (P53667 whole entry, looked up, the tested form may be a part): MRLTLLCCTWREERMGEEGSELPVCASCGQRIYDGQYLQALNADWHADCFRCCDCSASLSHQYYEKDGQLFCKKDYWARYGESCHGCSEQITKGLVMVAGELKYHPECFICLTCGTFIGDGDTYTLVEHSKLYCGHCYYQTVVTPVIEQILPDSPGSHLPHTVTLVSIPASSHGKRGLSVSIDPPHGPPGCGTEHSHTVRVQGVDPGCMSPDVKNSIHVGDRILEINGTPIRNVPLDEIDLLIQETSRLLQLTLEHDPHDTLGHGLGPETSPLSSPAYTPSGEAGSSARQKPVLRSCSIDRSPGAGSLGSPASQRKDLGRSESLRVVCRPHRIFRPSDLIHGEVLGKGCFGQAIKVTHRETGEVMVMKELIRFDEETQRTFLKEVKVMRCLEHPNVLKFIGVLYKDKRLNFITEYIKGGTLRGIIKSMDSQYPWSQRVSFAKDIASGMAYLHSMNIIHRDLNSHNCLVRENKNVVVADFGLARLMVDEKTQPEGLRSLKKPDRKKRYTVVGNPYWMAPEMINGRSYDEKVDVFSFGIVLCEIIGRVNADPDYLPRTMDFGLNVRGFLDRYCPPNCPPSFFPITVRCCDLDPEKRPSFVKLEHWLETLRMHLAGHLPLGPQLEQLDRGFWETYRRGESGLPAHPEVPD

[17] = biological target: Mitogen-activated protein kinase kinase kinase kinase 4 (Homo sapiens) (UniProt O95819); conditions: Compound concentration 1000.0 nM
[18] = biological target: Dual specificity mitogen-activated protein kinase kinase 2 (Homo sapiens) (UniProt P36507); conditions: Compound concentration 1000.0 nM
Dual specificity mitogen-activated protein kinase kinase 2 (Homo sapiens), sequence (P36507 whole entry): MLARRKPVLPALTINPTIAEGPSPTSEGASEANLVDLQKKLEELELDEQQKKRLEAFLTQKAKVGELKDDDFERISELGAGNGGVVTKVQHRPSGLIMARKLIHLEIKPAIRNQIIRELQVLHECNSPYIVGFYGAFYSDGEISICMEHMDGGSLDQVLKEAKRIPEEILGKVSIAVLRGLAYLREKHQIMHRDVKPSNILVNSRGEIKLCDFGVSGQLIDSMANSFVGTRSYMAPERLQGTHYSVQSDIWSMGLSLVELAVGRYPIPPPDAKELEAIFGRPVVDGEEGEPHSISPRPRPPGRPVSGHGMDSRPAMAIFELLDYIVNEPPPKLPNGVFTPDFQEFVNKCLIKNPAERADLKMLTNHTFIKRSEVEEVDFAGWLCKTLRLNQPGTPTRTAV

[19] = biological target: Dual specificity mitogen-activated protein kinase kinase 6 (Homo sapiens) (UniProt P52564); conditions: Compound concentration 1000.0 nM
Dual specificity mitogen-activated protein kinase kinase 6 (Homo sapiens), sequence (P52564 whole entry): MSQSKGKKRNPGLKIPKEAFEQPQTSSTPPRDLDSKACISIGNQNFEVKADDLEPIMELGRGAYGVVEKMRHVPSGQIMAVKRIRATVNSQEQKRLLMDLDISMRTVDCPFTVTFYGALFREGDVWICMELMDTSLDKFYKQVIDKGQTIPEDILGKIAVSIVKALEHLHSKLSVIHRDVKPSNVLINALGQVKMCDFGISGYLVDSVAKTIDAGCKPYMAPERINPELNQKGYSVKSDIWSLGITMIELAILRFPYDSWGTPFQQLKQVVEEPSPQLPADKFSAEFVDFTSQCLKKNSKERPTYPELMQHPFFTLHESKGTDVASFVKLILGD

[20] = biological target: Serine/threonine-protein kinase 4 (Homo sapiens) (UniProt Q13043); conditions: Compound concentration 1000.0 nM
[21] = biological target: Mitogen-activated protein kinase 13 (Homo sapiens) (UniProt O15264); conditions: Compound concentration 1000.0 nM
[22] = biological target: Serine/threonine-protein kinase PAK 1 (Homo sapiens) (UniProt Q13153); conditions: Compound concentration 1000.0 nM
[23] = biological target: Cyclin-dependent kinase 18 (Homo sapiens) (UniProt Q07002); conditions: Compound concentration 1000.0 nM
[24] = biological target: Platelet-derived growth factor receptor alpha (Homo sapiens) (UniProt P16234); conditions: Compound concentration 1000.0 nM
[25] = biological target: Phosphatidylinositol 4-phosphate 5-kinase type-1 alpha (Homo sapiens) (UniProt Q99755); conditions: Compound concentration 1000.0 nM
[26] = biological target: Protein kinase C theta type (Homo sapiens) (UniProt Q04759); conditions: Compound concentration 1000.0 nM
[27] = biological target: Serine/threonine-protein kinase D2 (Homo sapiens) (UniProt Q9BZL6); conditions: Compound concentration 1000.0 nM
[28] = biological target: Receptor-interacting serine/threonine-protein kinase 2 (Homo sapiens) (UniProt O43353); conditions: Compound concentration 1000.0 nM
[29] = biological target: Ribosomal protein S6 kinase alpha-3 (Homo sapiens) (UniProt P51812); conditions: Compound concentration 1000.0 nM
[30] = biological target: Ribosomal protein S6 kinase alpha-6 (Homo sapiens) (UniProt Q9UK32); conditions: Compound concentration 1000.0 nM
[31] = biological target: Serine/threonine-protein kinase 16 (Homo sapiens) (UniProt O75716); conditions: Compound concentration 1000.0 nM
[32] = biological target: Serine/threonine-protein kinase TAO1 (Homo sapiens) (UniProt Q7L7X3); conditions: Compound concentration 1000.0 nM
Serine/threonine-protein kinase TAO1 (Homo sapiens), sequence (Q7L7X3 whole entry): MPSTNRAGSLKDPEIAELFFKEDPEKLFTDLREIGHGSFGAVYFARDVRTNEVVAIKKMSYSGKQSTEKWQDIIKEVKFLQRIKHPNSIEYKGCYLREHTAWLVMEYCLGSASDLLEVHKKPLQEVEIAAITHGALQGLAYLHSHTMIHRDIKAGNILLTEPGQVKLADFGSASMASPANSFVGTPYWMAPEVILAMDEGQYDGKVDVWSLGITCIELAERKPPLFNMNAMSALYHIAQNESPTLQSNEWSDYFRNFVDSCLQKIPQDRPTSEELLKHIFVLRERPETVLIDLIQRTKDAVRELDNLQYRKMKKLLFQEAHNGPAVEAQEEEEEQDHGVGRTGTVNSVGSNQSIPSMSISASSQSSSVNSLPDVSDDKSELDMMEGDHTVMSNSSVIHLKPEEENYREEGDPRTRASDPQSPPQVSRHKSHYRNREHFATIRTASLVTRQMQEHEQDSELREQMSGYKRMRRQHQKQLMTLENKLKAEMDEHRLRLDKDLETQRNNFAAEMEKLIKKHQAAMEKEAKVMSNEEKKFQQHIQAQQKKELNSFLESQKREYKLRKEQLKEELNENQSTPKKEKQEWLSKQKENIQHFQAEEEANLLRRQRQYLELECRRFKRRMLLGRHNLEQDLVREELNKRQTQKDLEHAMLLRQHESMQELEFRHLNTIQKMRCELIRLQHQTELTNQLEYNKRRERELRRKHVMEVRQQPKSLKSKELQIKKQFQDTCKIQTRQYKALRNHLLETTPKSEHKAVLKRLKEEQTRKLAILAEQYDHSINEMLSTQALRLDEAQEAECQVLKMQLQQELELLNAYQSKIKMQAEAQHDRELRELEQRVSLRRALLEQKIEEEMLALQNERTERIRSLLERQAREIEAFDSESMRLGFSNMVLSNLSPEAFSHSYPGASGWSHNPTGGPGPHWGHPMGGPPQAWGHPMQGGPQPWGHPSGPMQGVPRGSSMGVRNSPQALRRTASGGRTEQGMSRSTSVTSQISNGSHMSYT

[33] = biological target: Tyrosine-protein kinase receptor TYRO3 (Homo sapiens) (UniProt Q06418); conditions: Compound concentration 1000.0 nM
[34] = biological target: Serine/threonine-protein kinase ULK1 (Homo sapiens) (UniProt O75385); conditions: Compound concentration 1000.0 nM
[35] = biological target: Serine/threonine-protein kinase WNK2 (Homo sapiens) (UniProt Q9Y3S1); conditions: Compound concentration 1000.0 nM
[36] = biological target: Serine/threonine-protein kinase WNK3 (Homo sapiens) (UniProt Q9BYP7); conditions: Compound concentration 1000.0 nM
[37] = biological target: Serine/threonine-protein kinase 25 (Homo sapiens) (UniProt O00506); conditions: Compound concentration 1000.0 nM
[38] = biological target: Alpha-1B adrenergic receptor (Homo sapiens) (UniProt P35368); conditions: Compound concentration 10.0 uM
Alpha-1B adrenergic receptor (Homo sapiens), sequence (P35368 whole entry): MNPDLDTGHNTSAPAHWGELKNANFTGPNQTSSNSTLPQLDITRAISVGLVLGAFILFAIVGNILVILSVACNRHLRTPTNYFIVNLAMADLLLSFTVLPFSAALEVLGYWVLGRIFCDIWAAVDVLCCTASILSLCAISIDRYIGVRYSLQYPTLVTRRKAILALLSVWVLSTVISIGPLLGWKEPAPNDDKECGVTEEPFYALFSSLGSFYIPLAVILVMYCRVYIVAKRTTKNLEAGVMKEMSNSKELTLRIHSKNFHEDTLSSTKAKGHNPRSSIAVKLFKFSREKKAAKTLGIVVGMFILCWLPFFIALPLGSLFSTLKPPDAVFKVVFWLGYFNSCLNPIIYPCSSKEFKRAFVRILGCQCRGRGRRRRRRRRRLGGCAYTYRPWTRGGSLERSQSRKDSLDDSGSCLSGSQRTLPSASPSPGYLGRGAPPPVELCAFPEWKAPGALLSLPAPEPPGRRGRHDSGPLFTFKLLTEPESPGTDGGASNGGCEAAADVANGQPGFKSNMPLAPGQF

[39] = biological target: T1, Muscarinic acetylcholine receptor M2 (Homo sapiens) (UniProt P08172); conditions: Compound concentration 10.0 uM
T1 sequence (whole entry): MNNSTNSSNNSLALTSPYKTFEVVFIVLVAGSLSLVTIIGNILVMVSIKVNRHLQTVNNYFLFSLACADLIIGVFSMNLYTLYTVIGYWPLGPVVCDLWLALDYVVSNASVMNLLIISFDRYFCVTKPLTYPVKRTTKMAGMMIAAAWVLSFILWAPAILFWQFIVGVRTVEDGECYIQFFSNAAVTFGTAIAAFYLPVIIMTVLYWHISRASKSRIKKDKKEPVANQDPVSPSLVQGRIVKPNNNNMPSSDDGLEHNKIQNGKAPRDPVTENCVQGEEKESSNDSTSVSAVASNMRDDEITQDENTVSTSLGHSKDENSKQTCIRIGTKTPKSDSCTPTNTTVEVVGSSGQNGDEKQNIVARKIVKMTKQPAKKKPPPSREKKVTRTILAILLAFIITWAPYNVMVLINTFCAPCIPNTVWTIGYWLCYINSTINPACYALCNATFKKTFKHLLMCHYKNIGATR

## O=C(Nc1cccnn1)N1CC(C/C=C/c2cncc(Oc3ccc(C(F)(F)F)cn3)n2)C1
[1]
  residual activity: 67%
[2]
  residual activity: 100%
[3]
  residual activity: 59%
[4]
  residual activity: 1.4%
[5]
  residual activity: 100%
[6]
  residual activity: 100%
[7]
  residual activity: 100%
[8]
  residual activity: 87%
[9]
  residual activity: 83%
[10]
  residual activity: 62%
[11]
  residual activity: 79%
[12]
  residual activity: 89%
[13]
  residual activity: 98%
[14]
  residual activity: 75%
[15]
  residual activity: 74%
[16]
  residual activity: 88%
[17]
  residual activity: 100%
[18]
  residual activity: 95%
[19]
  residual activity: 100%
[20]
  residual activity: 100%
[21]
  residual activity: 100%
[22]
  residual activity: 90%
[23]
  residual activity: 100%
[24]
  residual activity: 80%
[25]
  residual activity: 100%
[26]
  residual activity: 100%
[27]
  residual activity: 100%
[28]
  residual activity: 93%
[29]
  residual activity: 73%
[30]
  residual activity: 80%
[31]
  residual activity: 98%
[32]
  residual activity: 91%
[33]
  residual activity: 100%
[34]
  residual activity: 79%
[35]
  residual activity: 0%
[36]
  residual activity: 84%
[37]
  residual activity: 91%
[38]
  inhibition: 0.27%
[39]
  inhibition: 20.7%

## O=C(Nc1cccnn1)N1CCC(=Cc2cccc(Oc3ccc(C(F)(F)F)cn3)c2)CC1
[1]
  residual activity: 99%
[2]
  residual activity: 73%
[3]
  residual activity: 100%
[4]
  residual activity: 100%
[5]
  residual activity: 95%
[6]
  residual activity: 69%
[7]
  residual activity: 100%
[8]
  residual activity: 100%
[9]
  residual activity: 72%
[10]
  residual activity: 69%
[11]
  residual activity: 100%
[12]
  residual activity: 100%
[13]
  residual activity: 80%
[14]
  residual activity: 100%
[15]
  residual activity: 100%
[16]
  residual activity: 88%
[17]
  residual activity: 100%
[18]
  residual activity: 100%
[19]
  residual activity: 100%
[20]
  residual activity: 77%
[21]
  residual activity: 86%
[22]
  residual activity: 72%
[23]
  residual activity: 76%
[24]
  residual activity: 100%
[25]
  residual activity: 100%
[26]
  residual activity: 67%
[27]
  residual activity: 94%
[28]
  residual activity: 94%
[29]
  residual activity: 100%
[30]
  residual activity: 100%
[31]
  residual activity: 90%
[32]
  residual activity: 100%
[33]
  residual activity: 100%
[34]
  residual activity: 84%
[35]
  residual activity: 92%
[36]
  residual activity: 100%
[37]
  residual activity: 100%
[38]
  inhibition: 0.4%
[39]
  inhibition: 20.8%
